Patent US7683168B2, “Compositions of novel opioid compounds and method of use thereof” (priority 2005, dated 2010)

Key:
μ opioid receptor = target: T1, μ opioid receptor (Rattus norvegicus, UniProt P33535); assay: radioligand binding, μ opioid receptor, rat brain membranes; details: cell marked (rat), tritium-labeled DAMGO
T1 construct: tissue Pel-Freeze Biological Inc. (Rogers, Ark.); host or cells: rat whole brain

δ opioid receptor = target: T2, δ opioid receptor (Rattus norvegicus, UniProt P33533); assay: radioligand binding, δ opioid receptor, rat brain membranes; details: cell marked (rat), tritium-labeled Deltorphin II
T2 construct: tissue Pel-Freeze Biological Inc. (Rogers, Ark.); host or cells: rat whole brain

[1] = tested on: seizure-like convulsions in mice; assay: mouse seizure-like convulsions; type: in vivo
Outline: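 Male CD-1 mice (Charles River, Raleigh, N.C.) of 20-25 g were dosed and watched for one hour to detect seizure-like convulsions mediated by central delta receptors. An event was counted when clonic or tonic/clonic muscle movements involved the whole body, usually followed by brief catalepsy, judged by no attempt to withdraw front paws from a bar 2-3 inches above the floor.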

κ opioid receptor = target: T3, κ opioid receptor (Cavia porcellus, UniProt P41144); assay: radioligand binding, κ opioid receptor, guinea pig cerebellum; details: tritium-labeled U69593
T3 construct: tissue Pel-Freeze Biological Inc. (Rogers, Ark.); host or cells: guinea pig cerebellum

mouse vas deferens = assay: electrically stimulated mouse vas deferens (MVD) ED50; type: cell-based; details: ED50, inhibition of electrically induced contractions
guinea pig ileum = assay: electrically stimulated guinea pig ileum (GPI) ED50; type: cell-based; details: Cavia porcellus; ED50, inhibition of electrically induced contractions
Method: Further the compounds of formula (1) were evaluated for in vitro opioid receptor activity in various receptor systems, including mouse vas deferens (Mouse Vas Deferens ED50), and guinea pig ileum (Guinea Pig Ileum ED50). The assay procedures used for such determinations of receptor activity are set out below.
Intact ileums (about 3 cm length) were removed from guinea pig and suspended with 1 g of tension in a bath chamber as described for the vasa deferentia. The ileums were stimulated with electrical square-wave pulses of 0.1-Hz, 1 msec pulse duration at supramaximal voltage.
The ED50 values were extrapolated from curves showing the dose concentration plotted against the response (J. A. H. Lord, A. A. Waterfield, J. Hughes, H. W. Kosterlitz, Nature 267, 495, (1977)).

human delta receptor = target: T4, human delta receptor (Homo sapiens, UniProt P41143); assay: radioligand binding, human delta receptor, HEK-293 cell membranes; details: cell not marked (rat), species not given, read-out: δ
T4 construct: purchased Perkin Elmer, Boston, Mass; 6110549; host or cells: HEK-293 cells

human mu opioid receptor = target: T5, human mu opioid receptor (Homo sapiens, UniProt P35372); assay: radioligand binding, human mu opioid receptor, CHO cell membranes; details: species not given, read-out: μ
T5 construct: purchased Perkin Elmer, Boston, Mass; 6110535; host or cells: CHO cells
T5 sequence (P35372 whole entry): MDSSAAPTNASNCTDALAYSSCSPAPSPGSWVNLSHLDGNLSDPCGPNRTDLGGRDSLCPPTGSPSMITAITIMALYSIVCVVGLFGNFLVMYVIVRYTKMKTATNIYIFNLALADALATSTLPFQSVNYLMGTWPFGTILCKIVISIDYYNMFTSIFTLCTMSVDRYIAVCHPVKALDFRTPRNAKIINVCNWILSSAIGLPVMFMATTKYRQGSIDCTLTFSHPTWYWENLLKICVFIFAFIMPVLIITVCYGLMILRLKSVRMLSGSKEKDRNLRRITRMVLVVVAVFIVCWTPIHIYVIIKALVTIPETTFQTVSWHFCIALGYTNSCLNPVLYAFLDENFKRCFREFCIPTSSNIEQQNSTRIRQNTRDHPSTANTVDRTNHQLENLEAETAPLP

T4 sequence (P41143 whole entry): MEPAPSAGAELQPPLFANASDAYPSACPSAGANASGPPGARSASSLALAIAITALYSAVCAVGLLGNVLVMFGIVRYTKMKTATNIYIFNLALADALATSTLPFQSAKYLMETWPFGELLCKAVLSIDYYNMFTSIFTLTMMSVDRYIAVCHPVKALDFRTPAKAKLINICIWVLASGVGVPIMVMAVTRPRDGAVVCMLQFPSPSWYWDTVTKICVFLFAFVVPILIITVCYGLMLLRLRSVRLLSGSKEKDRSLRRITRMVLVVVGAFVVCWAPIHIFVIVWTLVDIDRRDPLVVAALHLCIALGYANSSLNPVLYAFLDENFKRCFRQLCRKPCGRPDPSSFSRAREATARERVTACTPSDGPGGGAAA
T2 sequence (P33533 whole entry): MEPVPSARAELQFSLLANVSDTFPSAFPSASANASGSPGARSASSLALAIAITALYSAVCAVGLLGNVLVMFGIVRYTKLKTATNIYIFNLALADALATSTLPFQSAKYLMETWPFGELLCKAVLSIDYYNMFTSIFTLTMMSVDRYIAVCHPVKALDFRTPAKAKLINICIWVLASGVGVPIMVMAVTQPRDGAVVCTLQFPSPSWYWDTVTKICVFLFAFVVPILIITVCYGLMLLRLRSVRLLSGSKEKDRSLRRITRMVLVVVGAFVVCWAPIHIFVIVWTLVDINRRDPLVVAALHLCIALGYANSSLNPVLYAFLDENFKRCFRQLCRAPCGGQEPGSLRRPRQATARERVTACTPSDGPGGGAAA
T3 sequence (P41144 whole entry): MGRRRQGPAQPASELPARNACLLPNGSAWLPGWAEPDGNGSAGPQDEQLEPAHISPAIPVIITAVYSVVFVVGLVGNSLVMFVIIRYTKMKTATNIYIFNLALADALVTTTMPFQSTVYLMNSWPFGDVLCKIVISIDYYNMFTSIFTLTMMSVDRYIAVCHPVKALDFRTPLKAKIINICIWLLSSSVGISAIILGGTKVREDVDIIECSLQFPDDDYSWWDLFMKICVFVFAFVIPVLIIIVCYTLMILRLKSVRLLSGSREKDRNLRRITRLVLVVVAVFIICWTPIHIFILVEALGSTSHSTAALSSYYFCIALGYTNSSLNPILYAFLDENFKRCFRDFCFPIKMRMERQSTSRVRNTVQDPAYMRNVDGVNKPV
T1 sequence (P33535 whole entry): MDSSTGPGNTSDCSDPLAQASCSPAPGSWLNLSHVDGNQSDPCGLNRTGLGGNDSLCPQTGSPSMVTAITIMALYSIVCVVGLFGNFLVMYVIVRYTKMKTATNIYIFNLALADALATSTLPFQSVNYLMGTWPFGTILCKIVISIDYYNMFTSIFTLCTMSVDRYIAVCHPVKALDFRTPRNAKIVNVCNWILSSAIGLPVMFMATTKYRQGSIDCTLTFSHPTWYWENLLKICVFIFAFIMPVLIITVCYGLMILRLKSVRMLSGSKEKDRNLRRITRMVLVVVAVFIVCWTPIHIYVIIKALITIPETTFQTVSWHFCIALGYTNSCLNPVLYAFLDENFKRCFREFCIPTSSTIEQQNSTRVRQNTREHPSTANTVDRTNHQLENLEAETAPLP

C=CCN1C[C@H](C)N(C(c2cccc(O)c2)c2cccc(C(=O)N3CCCNCC3)c2)C[C@H]1C (stereo partly drawn)
Ki (μ opioid receptor): 1.61 nM
Ki (δ opioid receptor): 4.68 nM
Seiz. ([1]; 10 mg/kg IV): 45% 10 mg/kg IV
Ki (κ opioid receptor): 1.6 nM
EC50 (mouse vas deferens): 6.07 nM

C=CCN1C[C@H](C)N(C(c2cccc(O)c2)c2cccc(C(=O)N3CCCN(CC(=O)OCC)CC3)c2)C[C@H]1C (stereo partly drawn)
Ki (μ opioid receptor): 3.33 nM
Ki (δ opioid receptor): 1.35 nM
Seiz. ([1]; 10 mg/kg IV): 25% 10 mg/kg IV
Ki (κ opioid receptor): 4.15 nM
EC50 (mouse vas deferens): 1.36 nM

C=CCN1C[C@H](C)N(C(c2cccc(O)c2)c2cccc(C(=O)N3CCCN(CC(=O)O)CC3)c2)C[C@H]1C (stereo partly drawn)
Ki (μ opioid receptor): 3.03 nM
Ki (δ opioid receptor): 3.53 nM
Seiz. ([1]; 3 mg/kg IV): 0%
Seiz. ([1]; 10 mg/kg IV): 10%
Ki (κ opioid receptor): 12.7 nM
EC50 (mouse vas deferens): 4.7 nM

C=CCN1C[C@H](C)N([C@@H](c2cccc(O)c2)c2cccc(C(=O)N3CCCN(CCC(=O)OCC)CC3)c2)C[C@H]1C
EC50 (guinea pig ileum): 112 nM
Ki (μ opioid receptor): 0.55 nM
Ki (δ opioid receptor): 0.57 nM
Seiz. ([1]; 10 mg/kg IV): 30% 10 mg/kg IV
Ki (κ opioid receptor): 1.09 nM
EC50 (mouse vas deferens): 5.58 nM

C=CCN1C[C@H](C)N([C@@H](c2cccc(O)c2)c2cccc(C(=O)N3CCCN(CCC(=O)O)CC3)c2)C[C@H]1C
EC50 (guinea pig ileum): 117 nM
Ki (μ opioid receptor): 3.89 nM
Ki (δ opioid receptor): 3.03 nM
Seiz. ([1]; 10 mg/kg IV): 0% 10 mg/kg IV
Ki (κ opioid receptor): 9.85 nM
EC50 (mouse vas deferens): 5.39 nM

C[C@@H]1CN([C@@H](c2cccc(O)c2)c2cccc(C(=O)N3CCCN(CCC(=O)O)CC3)c2)[C@@H](C)CN1Cc1ccccc1
EC50 (guinea pig ileum): 52.2 nM
Ki (μ opioid receptor): 3.9 nM
Ki (δ opioid receptor): 4 nM
Seiz. ([1]; 20 mg/kg IV): 0% 200 mg/kg PO 0% 20 mg/kg IV
Seiz. ([1]; 200 mg/kg PO): 0% 200 mg/kg PO 0% 20 mg/kg IV
Ki (κ opioid receptor): 3830 nM
EC50 (mouse vas deferens): 0.52 nM

C=CCN1C[C@H](C)N([C@@H](c2cccc(O)c2)c2cccc(C(=O)N3CCCN(CCCC(=O)OCC)CC3)c2)C[C@H]1C
EC50 (guinea pig ileum): 198 nM
Ki (μ opioid receptor): 1.76 nM
Ki (δ opioid receptor): 1.66 nM
Seiz. ([1]; 10 mg/kg IV): 0% 10 mg/kg IV
Ki (κ opioid receptor): 1.22 nM
EC50 (mouse vas deferens): 22.6 nM

C=CCN1C[C@H](C)N([C@@H](c2cccc(O)c2)c2cccc(C(=O)N3CCCN(CCCC(=O)O)CC3)c2)C[C@H]1C
EC50 (guinea pig ileum): 186 nM
Ki (μ opioid receptor): 5.57 nM
Ki (δ opioid receptor): 2.75 nM
Seiz. ([1]; 10 mg/kg IV): 0% 10 mg/kg IV
Ki (κ opioid receptor): 16.3 nM
EC50 (mouse vas deferens): 2.2 nM

C=CCN1C[C@H](C)N([C@@H](c2cccc(O)c2)c2cccc(C(=O)N3CCCN(CCCCC(=O)O)CC3)c2)C[C@H]1C
Ki (μ opioid receptor): 9 nM
Ki (δ opioid receptor): 6.43 nM
Seiz. ([1]; 10 mg/kg IV): 0% 10 mg/kg IV 0% 100 mg/kg SC
Seiz. ([1]; 100 mg/kg SC): 0% 10 mg/kg IV 0% 100 mg/kg SC
Ki (κ opioid receptor): 27.7 nM
EC50 (mouse vas deferens): 3.33 nM

C=CCN1C[C@H](C)N(C(c2ccc(C(=O)N3CCCN(CCCC(=O)OCC)CC3)cc2)c2cccc(O)c2)C[C@H]1C (stereo partly drawn)
EC50 (guinea pig ileum): 526 nM
Ki (μ opioid receptor): 2.6 nM
Ki (δ opioid receptor): 1.9 nM
Seiz. ([1]; 10 mg/kg IV): 0% 10 mg/kg IV
Ki (κ opioid receptor): 1.2 nM
EC50 (mouse vas deferens): 1.44 nM

C=CCN1C[C@H](C)N(C(c2ccc(C(=O)N3CCCN(CCCC(=O)O)CC3)cc2)c2cccc(O)c2)C[C@H]1C (stereo partly drawn)
EC50 (guinea pig ileum): 439 nM
Ki (μ opioid receptor): 16.1 nM
Ki (δ opioid receptor): 3.94 nM
Seiz. ([1]; 10 mg/kg IV): 0% 10 mg/kg IV 0% 100 mg/kg SC
Seiz. ([1]; 100 mg/kg SC): 0% 10 mg/kg IV 0% 100 mg/kg SC
Ki (κ opioid receptor): 29.2 nM
EC50 (mouse vas deferens): 0.95 nM

C[C@@H]1CN([C@@H](c2cccc(O)c2)c2cccc(C(=O)N3CCN(CC(=O)O)CC3)c2)[C@@H](C)CN1Cc1ccccc1 [Example 69, (4-{3-[(R)-((2S,5R)-4-Benzyl-2,5-dimethyl-piperazin-1-yl)-(3-hydroxy-phenyl)-methyl]-benzoyl}-piperazin-1-yl)-acetic acid]
EC50 (guinea pig ileum): 47.8 nM
Seiz. ([1]; 10 mg/kg IV): 0% 10 mg/kg IV
EC50 (mouse vas deferens): 0.48 nM
Ki (human delta receptor): 0.54 nM
Ki (human mu opioid receptor): 1.36 nM

C=CCN1C[C@H](C)N([C@@H](c2cccc(O)c2)c2cccc(C(=O)N3CCN(CCCC(=O)O)CC3)c2)C[C@H]1C [Example 75]
EC50 (guinea pig ileum): 178 nM
Seiz. ([1]; 10 mg/kg IV): 0% 10 mg/kg IV
EC50 (mouse vas deferens): 4.1 nM
Ki (human delta receptor): 25.3 nM
Ki (human mu opioid receptor): 10.8 nM

C[C@@H]1CN([C@@H](c2cccc(O)c2)c2cccc(C(=O)N3CCN(CCCC(=O)O)CC3)c2)[C@@H](C)CN1Cc1ccccc1 [Example 80, 4-(4-{3-[(R)-((2S,5R)-4-Benzyl-2,5-dimethyl-piperazin-1-yl)-(3-hydroxy-phenyl)-methyl]-benzoyl}-piperazin-1-yl)-butyric acid]
EC50 (guinea pig ileum): 104 nM
Seiz. ([1]; 10 mg/kg IV): 0% 10 mg/kg IV
EC50 (mouse vas deferens): 0.34 nM
Ki (human delta receptor): 5.7 nM
Ki (human mu opioid receptor): 5.3 nM

C=CCN1C[C@H](C)N([C@@H](c2cccc(O)c2)c2cccc(C(=O)N3CCN(CCCCC(=O)O)CC3)c2)C[C@H]1C [Example 84, 5-(4-{3-[(R)-((2S,5R)-4-Allyl-2,5-dimethyl-piperazin-1-yl)-(3-hydroxy-phenyl)-methyl]-benzoyl}-piperazin-1-yl)-pentanoic acid]
EC50 (guinea pig ileum): 209 nM
Seiz. ([1]; 10 mg/kg IV): 0% 10 mg/kg IV
EC50 (mouse vas deferens): 3.76 nM
Ki (human delta receptor): 13.4 nM
Ki (human mu opioid receptor): 57.3 nM

C=CCN1C[C@H](C)N([C@@H](c2cccc(O)c2)c2cccc(C(=O)N3CCC(C(=O)OCC)CC3)c2)C[C@H]1C [Example 119, 1-{3-[(R)-((2S,5R)-4-Allyl-2,5-dimethylpiperazin-1-yl)-(3-hydroxy-phenyl)methyl]benzoyl}piperidine-4-carboxylic acid ethyl ester]
EC50 (guinea pig ileum): 86.3 nM
Seiz. ([1]; 10 mg/kg IV): 80% 10 mg/kg IV
EC50 (mouse vas deferens): 1.96 nM
Ki (human delta receptor): 2.95 nM
Ki (human mu opioid receptor): 0.54 nM

CCOC(=O)C1CCN(C(=O)c2cccc([C@H](c3cccc(O)c3)N3C[C@@H](C)N(Cc4ccccc4)C[C@@H]3C)c2)CC1 [Example 122, 1-{3-[(R)-((2S,5R)-4-Benzyl-2,5-dimethyl-piperazin-1-yl)-(3-hydroxy-phenyl)-methyl]-benzoyl}-piperidine-4-carboxylic acid ethyl ester]
EC50 (guinea pig ileum): 153 nM
Seiz. ([1]; 10 mg/kg IV): 70% 10 mg/kg IV
EC50 (mouse vas deferens): 0.82 nM
Ki (human delta receptor): 4.5 nM
Ki (human mu opioid receptor): 1.9 nM

CCOC(=O)C1CCN(C(=O)c2cccc([C@H](c3cccc(O)c3)N3C[C@@H](C)N(Cc4cccc(F)c4)C[C@@H]3C)c2)CC1 [Example 124, 1-{3-[(R)-[(2S,5R)-4-(3-Fluoro-benzyl)-2,5-dimethyl-piperazin-1-yl]-(3-hydroxy-phenyl)-methyl]-benzoyl}-piperidine-4-carboxylic acid ethyl ester]
EC50 (guinea pig ileum): 1680 nM
Seiz. ([1]; 10 mg/kg IV): 10% 10 mg/kg IV
EC50 (mouse vas deferens): 2.54 nM
Ki (human delta receptor): 28.6 nM
Ki (human mu opioid receptor): 3.5 nM

CCOC(=O)C1CCN(C(=O)c2cccc([C@H](c3cccc(O)c3)N3C[C@@H](C)N(CC4CC4)C[C@@H]3C)c2)CC1 [Example 126, 1-{3-[(R)-((1S,4R)-4-Cyclopropylmethyl-2,5-dimethyl-piperazin-1-yl)-(3-hydroxy-phenyl)-methyl]-benzoyl}-piperidine-4-carboxylic acid ethyl ester]
EC50 (guinea pig ileum): 3310 nM
Seiz. ([1]; 10 mg/kg IV): 10% 10 mg/kg IV
EC50 (mouse vas deferens): 8.64 nM
Ki (human delta receptor): 3.7 nM
Ki (human mu opioid receptor): 1.5 nM

C=CCN1C[C@H](C)N([C@@H](c2cccc(O)c2)c2cccc(C(=O)N3CCC(O)CC3)c2)C[C@H]1C [Example 134, {3-[(R)-((2S,5R)-4-Allyl-2,5-dimethyl-piperazin-1-yl)-(3-hydroxy-phenyl)-methyl]-phenyl}-(4-hydroxy-piperidin-1-yl)-methanone]
EC50 (guinea pig ileum): 46.7 nM
Seiz. ([1]; 10 mg/kg IV): 0% 10 mg/kg IV
EC50 (mouse vas deferens): 5.44 nM
Ki (human delta receptor): 0.36 nM
Ki (human mu opioid receptor): 1.1 nM
